{"source": "patent US20060193908A1", "about": "“Extended release formulations of poorly soluble antibiotics” (priority 2004, published 2006)", "origin": "cited, not measured here", "settings": "USP 27/NF 22 listing"}
{"smiles": "CC[C@H]1OC(=O)[C@H](C)[C@@H](O[C@H]2C[C@@](C)(OC)[C@@H](O)[C@H](C)O2)[C@H](C)[C@@H](O[C@@H]2O[C@H](C)C[C@H](N(C)C)[C@H]2O)[C@](C)(OC)C[C@@H](C)C(=O)[C@H](C)[C@@H](O)[C@]1(C)O", "note": "[clarithromycin, Clarithromycin]", "values": [{"measurement": "solubility in water (USP descriptive term)", "value": "practically insoluble in water"}]}
